Results reported in EP3290412A1, “HIV-1 NUCLEOCAPSID INHIBITORS” (Università degli Studi di Siena, priority 2016, dated 2018).
Where two headings read alike, the source gives them in different places.

How the values were obtained:
[1] = test system: HIV-1 reference strain NL4-3; test: BiCycle assay (MT-2 then TZM-bl cells); format: cell-based; settings: Human immunodeficiency virus 1, NL43, TZM-bl, read-out: BiCycle IC50 nM
Protocol: BiCycle Assay is cell based assay allowing the evaluation of the antiviral activity of HIV-1 inhibitors on the whole replication cycle of HIV-1. The assay consists in a first round of infection of the T-cell line MT-2 followed by infection of TZM-bl cells. MT-2 cells were seeded at a concentration of 50,000 cells/well in a 96-well plate and infected with the HIV-1 reference strain NL4-3 in presence of five-fold dilutions of the investigational compounds. After 72 hours, 50 µl of supernatant from each well, containing the virus produced in the first round of infection, were used to infect TZM-bl cells seeded in a 96-plate well at a concentration of 30,000 cells/well. Two days later, cells were lysed adding 40 µl of Glo Lysis Buffer (Promega) to each well for 5 minutes, then 40 µl of Brighy-Glo Luciferase Reagent (Promega) were added to each well for relative luminescence units (RLU) counting using Glo-Max Multi Detection System (Promega). RLU values from each well were elaborated using the GraphPad v5.0 software to calculate the IC50 of each compound.

[2] = molecular target: T1, full length (1-55) HIV-1 NCp7 (Human immunodeficiency virus type 1 group M subtype B, UniProt P12493); test: Electromobility Shift Assay (EMSA), competition for ssDNA binding; settings: NCp7 300 nM, M13mp18 ssDNA; positive = >25% inhibition at 100µM
T1 construct: recombinant full length (1-55) HIV-1 NCp7 proteins; made in house
Text: The assay used a recombinant full length (1-55) HIV-1 NCp7 proteins based on the NL4-3 sequence (GenBank accession number AF324493). The protein was expressed and purified as described in [Carteau, S., Gorelick, R. J. & Bushman, F. D. Coupled integration of human immunodeficiency virus type 1 cDNA ends by purified integrase in vitro: stimulation by the viral nucleocapsid protein. Journal of virology 73, 6670-6679 (1999)].
Competition for single-stranded (ss) DNA binding was realized by mixing 1 µL of serial dilutions of NC inhibitors (diluted in DMSO) with 44 µL of NCp7 (300 nM) in a reaction buffer (20 mM Tris-HCl pH 7.4, 2 mM MgCl2, 100 mM NaCl, 1 mM DTT). 5 µL of a 10 ng/µL (4 nM) solution of M13mp18 ssDNA (BayouBiolabs) were then added and the tubes were incubated for 25 minutes at 37 °C. The reaction was terminated by chilling the tubes on ice followed by the addition of 5 µL of a loading buffer (30% glycerol, 0.01% xylene cyanol, 10 mM Tris-HCl pH 7.4). Samples were then resolved on 25 cm-long, 1% (w/v) agarose gels (SeaKem LE Agarose, Lonza) in 0.5x TBE. Gels were run in a Sub-Cell GT cuvette (BioRad) for 18 h at room temperature at 3 V/cm, stained with SybrGold (Molecular Probes) and scanned for fluorescence using a Typhoon 8600 (GE Healthcare). The experiments were performed in triplicate. Competition efficiency was realized by measuring the relative distance in pixels between the unbound ssDNA control, the NCp7-bound ssDNA control and the bound ssDNA for each points of the titration with the ImageQuant software. The IC50 was estimated as the NC inhibitors concentrations for which the bound ssDNA migrated at 50% of the distance separating the bound from the unbound ssDNA.

NC(11-55) = NC(11-55) (Human immunodeficiency virus type 1, UniProt P12493); test: NC inhibition assay (NC-induced cTAR DNA destabilization, fluorescence); format: biochemical, HIV-1; settings: for inhibition at 100 µM: single point screening, positive = >25% inhibition at 100µM
Text: The NC inhibition assay is based on the nucleic acid chaperone activity of the NC protein. NC destabilizes the secondary structure of cTAR DNA, the complementary sequence of the transactivation response element, which is involved in minus-strand DNA transfer during reverse transcription. In the assay, the cTAR sequence from the HIV-1 Mal strain (Bernacchi et al, J Mol Biol, 2002) is labeled with a dye (Alexa488 fluorophore) and a quencher 4-(4'-dimethylaminophenylazo)benzoic acid (Dabcyl) at its 5' and 3' ends, respectively. In the absence of destabilization, the close proximity of both cTAR ends results in a strong fluorescence quenching of the dye emission by the Dabcyl group. NC(11-55) added to cTAR at a ratio of 10 NC/cTAR melts the bottom of the cTAR stem, which increases the distance between the dye and the quencher and as a result increases the dye fluorescence signal [Shvadchak et al, (2009) Identification by high throughput screening of small compounds inhibiting the nucleic acid destabilization activity of the HIV-1 nucleocapsid protein. Biochimie, 916-923]. NCIs are expected to prevent the NC-induced destabilization of cTAR and thus reverse the NC-induced increase in the fluorescence of the labeled cTAR. The activity of the inhibitor is thus evaluated from the ratio of the fluorescence intensity observed in the presence of NC with the molecule to the one in the absence of the compound.
The doubly labelled cTAR DNA oligonucleotides (55nt) were synthesised and purified by IBA GmbH Nucleic Acids Product Supply (Göttingen, Germany). Extinction coefficient at 260 nm of 5.73 x 10^5 M^-1 cm^-1 was used to determine the concentration of cTAR.
The NC(11-55) peptide (Avilov et al, Antimicrob Agents Chemother, 2012) was synthesized by solid-phase peptide synthesis on a 433A synthesizer (ABI, Foster City, CA) as previously described [De Rocquigny H, (1991) First large scale chemical synthesis of the 72 amino acid HIV-1 nucleocapsid protein NCp7 in an active form. Biochem Biophys Res Commun., 1010-1018]. The peptide was stored lyophilized and was resuspended in water before use. The concentration of peptide was determined by using an extinction coefficient of 5.7 x 10^3 M^-1 cm^-1 at 280 nm. Next, 2.5 molar equivalents of ZnSO4 were added and pH was raised to its final value by adding buffer.
All experiments were performed at 20 °C in 25 mM Tris-HCl (pH 7.5), 30 mM NaCl, and 0.2 mM MgCl2. To evaluate the inhibition activity of compounds on NC-induced cTAR destabilization, cTAR DNA (0.1 µM) was preincubated with 1 µM NC(11-55) (molar ratio NC:cTAR = 10:1) for 15 min at room temperature before addition of compound. For single point screening, all compounds were tested at three final concentrations: 1 µM, 10 µM and 100 µM. For the IC50 determination, inhibition of NC-induced cTAR melting was monitored through addition of increasing concentrations of the selected molecules to the pre-formed NC(11-55)-cTAR complex. After the addition of compound, the mixture was incubated for 15 min at room temperature before the reading. The fluorescence signal was recorded with a plate reader Xenius (SAFAS Monaco) or Fluoromax 3 spectrofluorometer (Horiba Jobin-Yvon), and the excitation and emission wavelengths were 480 and 520 nm, respectively. The spectra were corrected for dilution, buffer fluorescence and screening effect (when it was required). In order to check the occurrence of aggregation, we performed additional reading of absorption with the plate reader Xenius (SAFAS Monaco) or Cary 4000 spectrophotometer (Agilent). […]

[3] = test system: HIV-1 reference strain NL4-3; test: MonoCycle assay (TZM-bl cells); format: cell-based; settings: Human immunodeficiency virus 1, NL43, TZM-bl, 48 h, read-out: Mono Cycle IC50 nM
Protocol: MonoCycle assay is a cell based assay allowing the evaluation of antiviral activity of HIV-1 inhibitors targeting the early steps of HIV-1 life cycle such as entry, uncoating of viral particles, reverse transcription and integration. The assay consists in the infection of TZM-bl cells (20,000/well) with the HIV-1 reference strain NL4-3 in presence of serial five-fold dilutions of the investigational inhibitors. After 48 hours, cells were lysed adding 40 µl of Glo Lysis Buffer (Promega) to each well for 5 minutes, then 40 µl of Brighy-Glo Luciferase Reagent (Promega) were added to each well for relative luminescence units (RLU) counting using Glo-Max Multi Detection System (Promega). RLU values from each well were elaborated using the GraphPad v5.0 software to calculate the IC50 of each compound.

HeLa cells = test: HeLa Proliferation assay (CellTiter Glo); format: cell-based; settings: 72 hours
Protocol: HeLa cells (ATCC® CCL2™) in DMEM (Dulbecco Modified Eagle's Medium) without phenol red, Thermo, 11880, USA + 10% FBS + 1X PenStrep + 1X Gln or HUVEC cells (ATCC® CRL1730™) in EBM-2 (Endothelial Growth Basal Medium, Lonza, CC3156) + EGM-2 SingleQuotsTMSupplements and Growth Factors (Lonza, CC4176) + 1X Penicyllin-Streptomycin (PenStrep, ThermoFisher) + 1X Glutamine, are plated in a 384 well plate (Thermo, 4334-11, USA) to a density of 2000 cells per well and let recover for four hours at 37 °C, 5% CO2 in a humidified atmosphere. After the recovery, compounds are transferred to assay plates as per compound preparation method. Assay plates are then incubated at 37 °C, 5% CO2 in a humidified atmosphere for 72 hours. Cell viability is measured by the CellTiter Glo (Promega, G8080, USA) as per manufacturer instruction.

[4] = test system: Peripheral blood mononuclear cells (PBMC); format: cell-based; settings: human, 7 days
Protocol: Peripheral blood mononuclear cells (PBMC) obtained from healthy donors by separation over Ficoll-Hypaque (GEHealthear-Cat.# GEH17-1440-02) were suspended at 2x10^6 cells/mL in RPMI 1640 (Biowest-Cat.#L0501-500) supplemented with 10% of heat-inactivated sterile fetal bovine serum (Gibco-Cat.#10270-106), 2 mmol/l L-glutamine (Biowest-Cat.#X0550-100), 50 U/mL Penicillin-50 µg/mL Streptomycin (Biowest-Cat.#L0022-100), referred to as complete medium (CM). PBMC were supplemented with 5 µg/mL of phytohaemagglutinin (Sigma Aldr-Cat.#L1668) and cultured in 75 cm^2 flasks (Sarsted-Cat.#833.911.002) for 2 days at 37 °C in a humidified atmosphere with 5% CO2.
PBMC were then washed in CM, counted by trypan blue exclusion (Gibco-Cat. #15250-061), centrifuged and suspended in fresh CM supplemented with 20 IU/mL recombinant human IL-2 (Miltenyi Biotec-Cat.#130-097-748) and seeded in a 96-well-tissue culture plate (Sarsted-Ca#831.837) at the density of 5x10^5 cells/mL (or 1x10^5 cells in 200 µL final CM volume per well). Cells were left untreated (negative control) or treated with different concentrations of the compounds.
After 7 days of incubation cytotoxicity was determined using Promega's CellTiter 96(R) AQueous One Solution Cell Proliferation Assay (MTS assay) (Promega-Cat.#G3581) according to the manufacturer's instuctions. This is a colorimetric method for determining the number of viable cells in proliferation or cytotoxicity assays. The MTS tetrazolium compound is bioreduced by cells into a colored formazan product that is soluble in tissue culture medium. This conversion is presumably accomplished by NADPH or NADH produced by dehydrogenase enzymes in metabolically active cells.
Briefly, MTS solution was thawed at room temperature, or in a water bath at 37 °C and 40 µL of MTS solution was pipeted into each well of the 96-well assay plate containing the samples in 200 µL of culture medium and incubated at 37 °C, 5% CO2 for 4 hours. The optical density was read at 490 nm using a 96-well plate reader (Tecan Infinite F50) and TD50 (toxic dose 50%, dose killing 50% of the cells compared to untreated control) value was calculated by interpolation of the curve obtained by plotting dose against percent mortality and by using "Magellan data analysis software". CM alone plus MTS solution was used as a blank, and cell culture well without compound was used as a cellular control.

[5] = cTAR DNA 0.1 µM, 1 µM NC(11-55), 20 °C, pH 7.5, read-out: NC inhibition IC50

Row | Compound | IC50 [1] [nM] | EMSA screening results [2] | IC50 (NC(11-55); [5]) [µM] | inhibition at 100 µM (NC(11-55)) [%] | IC50 [3] [nM] | Proliferation assay HELA TD50 (HeLa cells) [µM] | Proliferation assay PBMC TD50 [4] [nM] | IC50 (NC(11-55)) [µM]
1 | O=C(c1nc(-c2ccccn2)nc(O)c1O)N1CCC(c2ccccc2)CC1 [Compound 9, (5,6-dihydroxy-2-(pyridin-2-yl)pyrimidin-4-yl)(4-phenylpiperidin-1-yl)methanone] | 2000 | Negative | 128 | > 25 | 32900 | – | – | –
2 | C[C@@H](NC(=O)c1nc(-c2ccc(NC(=O)c3cnco3)cn2)nc(O)c1O)C1CCCCC1 [Compound 82, (R)-N-(6-(4-((1-cyclohexylethyl)carbamoyl)-5,6-dihydroxypyrimidin-2-yl)pyridin-3-yl)oxazole-5-carboxamide] | – | Positive (A compound showing >25% inhibition when tested at 100µM concentration is considered as "positive") | 19.5 | > 25 | – | 6.5308 | – | –
3 | C[C@@H](NC(=O)c1nc(-c2nccc3[nH]ccc23)nc(O)c1O)C1CCCCC1 [Compound 85, (R)-N-(1-cyclohexylethyl)-5,6-dihydroxy-2-(1H pyrrolo[3,2-c]pyridin-4-yl)pyrimidine-4-carboxamide] | 2670 | Positive (A compound showing >25% inhibition when tested at 100µM concentration is considered as "positive") | 11.5 | > 25 | > 50000 | – | – | –
4 | C[C@@H](NC(=O)c1nc(-c2ccc(N3CCN(C)CC3)cn2)nc(O)c1O)C1CCCCC1 [Compound 94, (R)-N-(1-cyclohexylethyl)-5,6-dihydroxy-2-(5-(4-methylpiperazin-1-yl)pyridin-2-yl)pyrimidine-4-carboxamide] | – | Negative | – | > 25 | – | – | 740 | 18
